Measurements published in patent publication US5801222A, “Isolation and structure of the human cancer cell growth inhibitory cyclic octapeptides phakellistatin 10 and 11” (Arizona Board of Regents acting on behalf of Arizona State …, priority 1994, dated 1998).
Residues, ends and D or L forms follow the SMILES beside them.

Assays:
[1] = tested on: non-small cell lung cancer cell line; assay: NCI in vitro screen, non-small cell lung cancer cell line; type: cell-based, human; settings: one non-small cell lung cancer cell line
Method: (§1) Total Growth Inhibition ("TGI") is the drug dose needed to yield zero percent growth, i.e., just as many cells at the end of the experiment as were present in the beginning. Whether just as many cells were killed as were produced (steady state), or no growth occurred (total inhibition), cannot be distinguished.
(§2) Each drug is tested at five (5) doses: 100-10-1-0.1-0.01 μg/ml. Percent Growths are calculated for each dose. The two (or three) doses with growth values above, below, (or near to) 50% growth are used to calculate the ED50 /GI50 using a linear regression formula. The log of the dose is used during the regression computation. If no dose yields a growth value under 50%, the results are expressed as: ED50 >(highest dose). If no dose yields growth higher than 50% growth, then ED50 <(lowest dose). […]
(§3) At the start of an experiment, cells from the in vitro cell cultures are inoculated into the appropriate tubes or microtiter plates. One set of control tubes/plates is immediately counted to determine the number of cells at the start of the experiment. This is the "baseline count", or "Tzero reading". At the end of the experiment (48 hours later) a second set of control tubes/plates is analyzed to determine the "Control Growth" value. The growth (or death) of cells relative to the initial quantity of cells is used to define the "Percent of Growth". […]

[2] = tested on: ovarian cancer cell line; assay: NCI in vitro screen, ovarian cancer cell line; type: cell-based, human; settings: one ovarian cancer cell line
Method: as §1, §2, §3

[3] = tested on: five other cell lines; assay: NCI in vitro screen, five other cell lines; type: cell-based, human; settings: five other cell lines (not named)
Method: (§4) Lethal Concentration 50% ("LC50 ") is the drug concentration which reduces growth to -50%, i.e., removes half of the cells originally present at the beginning of the experiment.
Each drug is tested at five (5) doses: 100-10-1-0.1-0.01 μg/ml. Percent Growths are calculated for each dose. The two (or three) doses with growth values above, below, (or near to) 50% growth are used to calculate the ED50 /GI50 using a linear regression formula. The log of the dose is used during the regression computation. If no dose yields a growth value under 50%, the results are expressed as: ED50 >(highest dose). If no dose yields growth higher than 50% growth, then ED50 <(lowest dose). Similar calculations are performed for the TGI at 0% growth, and at -50% growth for the LC50.
as §3

[4] = tested on: MDA-MB-435 breast cancer cell line; assay: NCI in vitro screen, MDA-MB-435; type: cell-based, human
Excerpt: as §1, §4
Each drug is tested at five (5) doses: 100-10-1-0.1-0.01 μg/ml. Percent Growths are calculated for each dose. The two (or three) doses with growth values above, below, (or near to) 50% growth are used to calculate the ED50 /GI50 using a linear regression formula. The log of the dose is used during the regression computation. […]
as §3

[5] = tested on: CNS cancer cell lines; assay: NCI in vitro screen, CNS cancer cell lines; type: cell-based, human
Method: as §1, §2, §3

[6] = tested on: breast cancer cell lines; assay: NCI in vitro screen, breast cancer cell lines; type: cell-based, human; settings: two breast cancer cell lines
Method: as §1, §2, §3

[7] = tested on: NCI's 60-cell line human tumor panel; assay: NCI 60-cell line human tumor in vitro screen; type: cell-based; settings: 60-cell line panel; 10^-5 M high test concentration, log10 dilutions; 48 hours; read-out: overall panel-averaged GI50 concentration
Excerpt: The following measures are used to express drug activity by giving the drug dose which reduces cell growth to a specified percentage of growth:
ED50 (P388) and GI50 (HTCL) are the drug doses needed to reduce the percent growth to 50%. There is no mathematical difference between ED50 and GI50, which are both calculated using the same formula. The only difference is historical usage.
as §1, with “distinguished. […]” for “distinguished.”
Percent Growths are calculated for each dose. […]
as §3

Row | Molecule | Total Growth Inhibition (TGI) [1] | Total Growth Inhibition (TGI) [2] | LC50 [3] | LC50 [4] | Total Growth Inhibition (TGI) ([5]; one CNS cancer cell line) | Total Growth Inhibition (TGI) [6] | GI50 [7] [nM] | Total Growth Inhibition (TGI) ([5]; two CNS cancer cell lines)
1 | CC[C@H](C)[C@@H]1NC(=O)[C@H](Cc2ccccc2)NC(=O)[C@@H]2CCCN2C(=O)[C@H](Cc2ccccc2)NC(=O)[C@@H]2CCCN2C(=O)[C@H](CCC(N)=O)NC(=O)[C@@H]2CCCN2C(=O)[C@H](Cc2ccccc2)NC1=O [phakellistatin 11, cyclo-(Pro-Gln-Pro-Phe-Pro-Phe-Ile-Phe)] (cyclo(FIFPQPFP)) | less than 10^-7 M per milliliter | less than 10^-7 M per milliliter | less than 10^-5 M per milliliter | less than 10^-5 M per milliliter | less than 10^-7 M per milliliter | less than 10^-7 M per milliliter | 132 | –
2 | cyclo-(Pro-Leu-Thr-Pro-Ile-Pro-Trp-Val) (PLTPIPWV; head-to-tail cyclic) [phakellistatin 10, cyclic octapeptide isolated from the marine sponge Phakellia sp] | – | – | – | less than 10^-5 M per milliliter | – | less than 10^-6 M per milliliter | 790 | less than 10^-6 M per milliliter
